Data from ChEMBL document CHEMBL1201862, “PubChem BioAssay data set” (2004).
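Test compounds were applied to cells in 96-well plates for 48 hours at 5 doses. At the GI50, growth is halved.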 Active and inactive are the calls of the source. Rule as the data show it: active = GI50 up to about 1.1 µM and inactive = higher.

Legend:
Assay in all cases: NCI anticancer screen, dose series, 48 h
BT-549 = tested on: BT-549
HCT-15 = tested on: HCT-15
MCF7 = tested on: MCF7
RPMI-8226 = tested on: RPMI-8226
SK-MEL-28 = tested on: SK-MEL-28
HT-29 = tested on: HT-29
NCI-H522 = tested on: NCI-H522
NCI/ADR-RES = tested on: NCI/ADR-RES
OVCAR-8 = tested on: OVCAR-8
SNB-19 = tested on: SNB-19
CCRF-CEM = tested on: CCRF-CEM
MDA-N = tested on: MDA-N
TK-10 = tested on: TK-10
T47D = tested on: T47D
SK-OV-3 = tested on: SK-OV-3
M14 = tested on: M14
OVCAR-5 = tested on: OVCAR-5
DU-145 = tested on: DU-145
OVCAR-4 = tested on: OVCAR-4
HOP-92 = tested on: HOP-92

Compound | GI50 (BT-549) | GI50 (HCT-15) [µM] | GI50 (MCF7) | GI50 (RPMI-8226) | GI50 (SK-MEL-28) | GI50 (HT-29) | GI50 (NCI-H522) | GI50 (NCI/ADR-RES) | GI50 (OVCAR-8) | GI50 (SNB-19) | GI50 (CCRF-CEM) | GI50 (MDA-N) | GI50 (TK-10) | GI50 (T47D) | GI50 (SK-OV-3) | GI50 (M14) | GI50 (OVCAR-5) | GI50 (DU-145) | GI50 (OVCAR-4) | GI50 (HOP-92)
CC(=O)c1c2c(cc3c1CC1(C3)Cc3ccc4c(c3C1=O)CCC4)CCC2 (stereo not given) | 62.4 µM (inactive) | 16.1 | 16.7 µM (inactive) | 13.5 µM (inactive) | 57.1 µM (inactive) | 11.8 µM (inactive) | 0.74 µM (active) | 2.07 µM (inactive) | 75.3 µM (inactive) | > 100 µM (inactive) | 19.3 µM (inactive) | 13.8 µM (inactive) | 11.1 µM (inactive) | 9.73 µM (inactive) | > 100 µM (inactive) | 43 µM (inactive) | > 100 µM (inactive) | 99.3 µM (inactive) | 23.9 µM (inactive) | 8.85 µM (inactive)
CC12CC3OC(=O)C1COC14OC5(C2C1=O)C(O)(CCC1C4CC(O)C2(O)CC=CC(=O)C12C)C(=O)OC35C (stereo not given) | > 100 µM (inactive) | > 100 | > 100 µM (inactive) | > 100 µM (inactive) | > 100 µM (inactive) | > 100 µM (inactive) | > 100 µM (inactive) | > 100 µM (inactive) | > 100 µM (inactive) | > 100 µM (inactive) | > 100 µM (inactive) | 83.4 µM (inactive) | > 100 µM (inactive) | > 100 µM (inactive) | > 100 µM (inactive) | > 100 µM (inactive) | > 100 µM (inactive) | > 100 µM (inactive) | > 100 µM (inactive) | > 100 µM (inactive)
CN/C(=N\N)NS(=O)(=O)c1cc(C)c(Cl)cc1S | 38.5 µM (inactive) | 48.2 | 62.4 µM (inactive) | 74 µM (inactive) | > 100 µM (inactive) | 40.4 µM (inactive) | 25.2 µM (inactive) | > 100 µM (inactive) | 96.2 µM (inactive) | > 100 µM (inactive) | 43.6 µM (inactive) | > 100 µM (inactive) | 77.4 µM (inactive) | 24.4 µM (inactive) | > 100 µM (inactive) | 54.5 µM (inactive) | 93.5 µM (inactive) | > 100 µM (inactive) | > 100 µM (inactive) | 75.2 µM (inactive)
COC(=O)CCC(=O)NC1=C(NCc2ccccc2)C(=O)c2ccccc2C1=O | 46.7 µM (inactive) | 17 | 17.3 µM (inactive) | 34 µM (inactive) | 88.3 µM (inactive) | 25.7 µM (inactive) | 19.1 µM (inactive) | 29.3 µM (inactive) | 27.7 µM (inactive) | 21.7 µM (inactive) | 35.8 µM (inactive) | 16 µM (inactive) | 45.3 µM (inactive) | 34 µM (inactive) | 57.3 µM (inactive) | 18.7 µM (inactive) | 29.5 µM (inactive) | 45.3 µM (inactive) | 18.5 µM (inactive) | 15.7 µM (inactive)
CCOC(=O)C1=CN(Cc2ccccc2)C2ON=C(c3ccc(Cl)cc3)C2C1 (stereo not given) | 32.4 µM (inactive) | > 32.4 | 23.6 µM (inactive) | 22 µM (inactive) | > 56.2 µM (inactive) | 48.6 µM (inactive) | 10.4 µM (inactive) | > 54.6 µM (inactive) | > 54 µM (inactive) | > 100 µM (inactive) | 9.1 µM (inactive) | 17.9 µM (inactive) | > 60.5 µM (inactive) | 5.61 µM (inactive) | > 63.7 µM (inactive) | > 54.7 µM (inactive) | 34.4 µM (inactive) | > 55 µM (inactive) | 42 µM (inactive) | 18.8 µM (inactive)
